From ChEMBL document CHEMBL1201862, “PubChem BioAssay data set” (2004)
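Protocol summary: plate cells (96-well), add compound at 5 concentrations, incubate 48 h, interpolate endpoints linearly. GI50 marks 50% less growth.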 The source made the active and inactive calls. Rule as the data show it: active = GI50 up to about 1.1 µM and inactive = higher.

Columns and labels:
Assay in all cases: NCI-60 cell line screen, 48 h
SF-268 = system: SF-268
RPMI-8226 = system: RPMI-8226
HCT-116 = system: HCT-116
NCI/ADR-RES = system: NCI/ADR-RES
MDA-MB-231 = system: MDA-MB-231
T47D = system: T47D
CAKI-1 = system: CAKI-1
OVCAR-3 = system: OVCAR-3
TK-10 = system: TK-10
CCRF-CEM = system: CCRF-CEM
HL-60 = system: HL-60
Hs-578T = system: Hs-578T
NCI-H460 = system: NCI-H460
LOX IMVI = system: LOX IMVI
HOP-92 = system: HOP-92
U-251 = system: U-251
SNB-75 = system: SNB-75
SK-OV-3 = system: SK-OV-3

CCOC(=O)c1c(N=C(S)Nc2ccc(Cl)cc2)sc2c1CCN(C)C2
GI50 (SF-268): > 100 µM (inactive) | GI50 (RPMI-8226): 33.9 µM (inactive) | GI50 (HCT-116): > 100 µM (inactive) | GI50 (NCI/ADR-RES): > 100 µM (inactive) | GI50 (MDA-MB-231): > 100 µM (inactive) | GI50 (T47D): > 100 µM (inactive) | GI50 (CAKI-1): > 100 µM (inactive) | GI50 (OVCAR-3): 74 µM (inactive) | GI50 (TK-10): > 100 µM (inactive) | GI50 (CCRF-CEM): 26.9 µM (inactive) | GI50 (HL-60): 32.9 µM (inactive) | GI50 (Hs-578T): > 100 µM (inactive) | GI50 (NCI-H460): 94 µM (inactive)

Nc1ccc(Oc2ccc(C34CC5C6CC7(c8ccc(Oc9ccc(N)cc9)cc8)CC5C(C3)C(C7)C6C4)cc2)cc1
GI50 (LOX IMVI): > 100 µM (inactive) | GI50 (SF-268): > 100 µM (inactive) | GI50 (RPMI-8226): > 100 µM (inactive) | GI50 (HCT-116): > 100 µM (inactive) | GI50 (NCI/ADR-RES): > 100 µM (inactive) | GI50 (MDA-MB-231): > 100 µM (inactive) | GI50 (T47D): > 100 µM (inactive) | GI50 (HOP-92): > 100 µM (inactive) | GI50 (CAKI-1): > 100 µM (inactive) | GI50 (U-251): > 100 µM (inactive) | GI50 (OVCAR-3): > 100 µM (inactive) | GI50 (TK-10): > 100 µM (inactive) | GI50 (CCRF-CEM): > 100 µM (inactive) | GI50 (HL-60): > 100 µM (inactive) | GI50 (Hs-578T): > 100 µM (inactive) | GI50 (NCI-H460): > 100 µM (inactive)

O=C(CC(=O)N1N=C(N2CCCCC2)CC1c1ccccc1)Nc1ccccc1 (stereo not given)
GI50 (LOX IMVI): > 100 µM (inactive) | GI50 (SF-268): > 100 µM (inactive) | GI50 (HCT-116): > 100 µM (inactive) | GI50 (NCI/ADR-RES): > 100 µM (inactive) | GI50 (MDA-MB-231): > 100 µM (inactive) | GI50 (T47D): > 100 µM (inactive) | GI50 (HOP-92): 91 µM (inactive) | GI50 (CAKI-1): > 100 µM (inactive) | GI50 (U-251): > 100 µM (inactive) | GI50 (SNB-75): > 100 µM (inactive) | GI50 (OVCAR-3): > 100 µM (inactive) | GI50 (TK-10): > 100 µM (inactive) | GI50 (CCRF-CEM): > 100 µM (inactive) | GI50 (HL-60): > 100 µM (inactive) | GI50 (Hs-578T): > 100 µM (inactive) | GI50 (NCI-H460): > 100 µM (inactive)

C[N+]12C=CC=C1C(N1CCCC1)c1scc(-c3ccc(Br)cc3)c12 (stereo not given)
GI50 (LOX IMVI): 25.5 µM (inactive) | GI50 (SF-268): 3.15 µM (inactive) | GI50 (RPMI-8226): 3.01 µM (inactive) | GI50 (HCT-116): 30.9 µM (inactive) | GI50 (NCI/ADR-RES): > 100 µM (inactive) | GI50 (MDA-MB-231): 23.9 µM (inactive) | GI50 (SK-OV-3): > 81.7 µM (inactive) | GI50 (T47D): 4.61 µM (inactive) | GI50 (HOP-92): 12 µM (inactive) | GI50 (CAKI-1): > 62.5 µM (inactive) | GI50 (U-251): 2.09 µM (inactive) | GI50 (SNB-75): 3.1 µM (inactive) | GI50 (OVCAR-3): 6.38 µM (inactive) | GI50 (TK-10): 91.2 µM (inactive) | GI50 (CCRF-CEM): 18.2 µM (inactive) | GI50 (Hs-578T): 1.98 µM (inactive) | GI50 (NCI-H460): 14.6 µM (inactive)

CN(C)c1ccc(/C=N\NC(=O)Nc2cccc3ccccc23)cc1
GI50 (LOX IMVI): 4.15 µM (inactive) | GI50 (SF-268): 13 µM (inactive) | GI50 (RPMI-8226): 4.28 µM (inactive) | GI50 (HCT-116): 5.52 µM (inactive) | GI50 (NCI/ADR-RES): 7.41 µM (inactive) | GI50 (MDA-MB-231): 12.3 µM (inactive) | GI50 (T47D): 2.73 µM (inactive) | GI50 (HOP-92): 20.3 µM (inactive) | GI50 (CAKI-1): 3.25 µM (inactive) | GI50 (U-251): 5.82 µM (inactive) | GI50 (SNB-75): 9.02 µM (inactive) | GI50 (TK-10): 12.2 µM (inactive) | GI50 (CCRF-CEM): 4.26 µM (inactive) | GI50 (HL-60): 2.03 µM (inactive) | GI50 (Hs-578T): 4.17 µM (inactive) | GI50 (NCI-H460): 4.31 µM (inactive)

O=C1N[C@@H](COc2ccc(/C=N/c3ccc(CCc4ccc(/N=C/c5ccc(OC[C@@H]6COC(=O)N6)cc5)cc4)cc3)cc2)CO1
GI50 (LOX IMVI): > 100 µM (inactive) | GI50 (SF-268): > 100 µM (inactive) | GI50 (RPMI-8226): > 100 µM (inactive) | GI50 (HCT-116): > 100 µM (inactive) | GI50 (NCI/ADR-RES): > 100 µM (inactive) | GI50 (MDA-MB-231): > 100 µM (inactive) | GI50 (SK-OV-3): > 100 µM (inactive) | GI50 (T47D): > 100 µM (inactive) | GI50 (CAKI-1): > 100 µM (inactive) | GI50 (U-251): > 100 µM (inactive) | GI50 (OVCAR-3): > 100 µM (inactive) | GI50 (TK-10): > 100 µM (inactive) | GI50 (HL-60): > 100 µM (inactive) | GI50 (Hs-578T): > 100 µM (inactive)

CC1CC(C#N)=C2NCCN2C1=O (stereo not given)
GI50 (LOX IMVI): 30.8 µM (inactive) | GI50 (SF-268): > 100 µM (inactive) | GI50 (RPMI-8226): > 100 µM (inactive) | GI50 (NCI/ADR-RES): > 100 µM (inactive) | GI50 (MDA-MB-231): > 100 µM (inactive) | GI50 (SK-OV-3): > 100 µM (inactive) | GI50 (T47D): > 100 µM (inactive) | GI50 (CAKI-1): 51.9 µM (inactive) | GI50 (U-251): > 100 µM (inactive) | GI50 (SNB-75): > 100 µM (inactive) | GI50 (OVCAR-3): > 100 µM (inactive) | GI50 (TK-10): > 100 µM (inactive) | GI50 (CCRF-CEM): > 100 µM (inactive) | GI50 (HL-60): > 100 µM (inactive) | GI50 (Hs-578T): > 100 µM (inactive) | GI50 (NCI-H460): > 100 µM (inactive)

Cc1ccc(/C(=C/C=C(C#N)C#N)Sc2cc(Cl)ccc2Cl)cc1
GI50 (LOX IMVI): 1.01 µM (active) | GI50 (SF-268): 5.97 µM (inactive) | GI50 (HCT-116): 0.83 µM (active) | GI50 (NCI/ADR-RES): 2.42 µM (inactive) | GI50 (MDA-MB-231): 3.18 µM (inactive) | GI50 (SK-OV-3): 8 µM (inactive) | GI50 (T47D): 12.9 µM (inactive) | GI50 (CAKI-1): 4.76 µM (inactive) | GI50 (U-251): 3.21 µM (inactive) | GI50 (SNB-75): 17 µM (inactive) | GI50 (OVCAR-3): 3.06 µM (inactive) | GI50 (TK-10): 2.92 µM (inactive) | GI50 (Hs-578T): 2.42 µM (inactive) | GI50 (NCI-H460): 4.31 µM (inactive)

COC(=O)c1cncc2c1CC1C3(C(=O)OC)C=NC(C4C(CO)=CCC43)C21C (stereo not given)
GI50 (LOX IMVI): > 100 µM (inactive) | GI50 (SF-268): > 100 µM (inactive) | GI50 (HCT-116): > 100 µM (inactive) | GI50 (NCI/ADR-RES): > 100 µM (inactive) | GI50 (MDA-MB-231): > 100 µM (inactive) | GI50 (T47D): > 100 µM (inactive) | GI50 (HOP-92): > 100 µM (inactive) | GI50 (CAKI-1): > 100 µM (inactive) | GI50 (U-251): > 100 µM (inactive) | GI50 (SNB-75): 83.4 µM (inactive) | GI50 (TK-10): > 100 µM (inactive) | GI50 (CCRF-CEM): > 100 µM (inactive) | GI50 (HL-60): > 100 µM (inactive) | GI50 (Hs-578T): > 100 µM (inactive) | GI50 (NCI-H460): > 100 µM (inactive)

CCC1(CC)C(=O)N(C(=O)c2ccc(C)cc2)N(C(=O)c2ccc(C)cc2)C1=O
GI50 (LOX IMVI): 33.2 µM (inactive) | GI50 (SF-268): 27.7 µM (inactive) | GI50 (RPMI-8226): 35.4 µM (inactive) | GI50 (HCT-116): 32.2 µM (inactive) | GI50 (NCI/ADR-RES): 34.2 µM (inactive) | GI50 (MDA-MB-231): > 75 µM (inactive) | GI50 (SK-OV-3): > 75 µM (inactive) | GI50 (T47D): 36.1 µM (inactive) | GI50 (CAKI-1): 52 µM (inactive) | GI50 (U-251): 35 µM (inactive) | GI50 (SNB-75): 14.4 µM (inactive) | GI50 (OVCAR-3): 17.7 µM (inactive) | GI50 (TK-10): 73.1 µM (inactive) | GI50 (CCRF-CEM): 33.1 µM (inactive) | GI50 (HL-60): 28.4 µM (inactive) | GI50 (Hs-578T): > 75 µM (inactive) | GI50 (NCI-H460): 18.3 µM (inactive)

CC1(C)OC1COc1c2occc2cc2ccc(=O)oc12 (stereo not given)
GI50 (LOX IMVI): > 100 µM (inactive) | GI50 (SF-268): > 100 µM (inactive) | GI50 (RPMI-8226): 39.2 µM (inactive) | GI50 (HCT-116): > 100 µM (inactive) | GI50 (NCI/ADR-RES): > 100 µM (inactive) | GI50 (MDA-MB-231): > 100 µM (inactive) | GI50 (T47D): 79.1 µM (inactive) | GI50 (HOP-92): > 100 µM (inactive) | GI50 (CAKI-1): > 100 µM (inactive) | GI50 (U-251): > 100 µM (inactive) | GI50 (SNB-75): > 100 µM (inactive) | GI50 (OVCAR-3): > 100 µM (inactive) | GI50 (CCRF-CEM): > 100 µM (inactive) | GI50 (HL-60): 70.5 µM (inactive) | GI50 (Hs-578T): > 100 µM (inactive) | GI50 (NCI-H460): 40.6 µM (inactive)

NC(Cc1cc(I)c(Oc2ccc(O)c(I)c2)c(I)c1)C(=O)O (stereo not given) [RATHYRONINE]
GI50 (LOX IMVI): 34.8 µM (inactive) | GI50 (SF-268): 42.6 µM (inactive) | GI50 (RPMI-8226): 29.9 µM (inactive) | GI50 (HCT-116): > 100 µM (inactive) | GI50 (NCI/ADR-RES): > 100 µM (inactive) | GI50 (MDA-MB-231): 29.3 µM (inactive) | GI50 (SK-OV-3): > 100 µM (inactive) | GI50 (T47D): 81.7 µM (inactive) | GI50 (HOP-92): 82.4 µM (inactive) | GI50 (CAKI-1): > 100 µM (inactive) | GI50 (U-251): 43.4 µM (inactive) | GI50 (SNB-75): 54.3 µM (inactive) | GI50 (OVCAR-3): > 100 µM (inactive) | GI50 (TK-10): 42 µM (inactive) | GI50 (Hs-578T): 37.9 µM (inactive)
